How the values were obtained:
[1] = biological target: N-lysine methyltransferase SMYD2 (Homo sapiens) (UniProt Q9NRG4); assay: Inhibition of human SMYD2 at 10 uM relative to control
[2] = biological target: Serine/threonine-protein kinase Chk1 (Homo sapiens) (UniProt O14757); assay: Inhibition of recombinant full length human CHK1 at 10 uM using KKKVSRSGLYRSPSMPENLNRPR as substrate measured after 40 mins in presence of [gamma33P]ATP by scintillation counting method relative to control
[3] = biological target: Tyrosine-protein kinase ITK/TSK (Homo sapiens) (UniProt Q08881); assay: Inhibition of recombinant human ITK (352 to 617 residues) at 10 uM using myelin basic protein as substrate measured after 40 mins in presence of [gamm33P]ATP by scintillation counting method relative to control
[4] = biological target: Transcription initiation factor TFIID subunit 1-like (Homo sapiens) (UniProt Q8IZX4); assay: Inhibition of recombinant human TAF1L (1428 to end residues) at 10 uM using RRRFRPASPLRGPPK as substrate measured after 120 mins in presence of [gamma33P]ATP by scintillation counting method relative to control
[5] = biological target: Transcriptional enhancer factor TEF-3 (Homo sapiens, UniProt Q15561); assay: Binding affinity to N-terminal His6-tagged human TEAD4-YBD (217 to 434 residues) expressed in Escherichia coli C43 (DE3) cells assessed as change in melting temperature at 1:4 ratio by SYPRO-dye based thermal shift assay
[6] = biological target: ALK tyrosine kinase receptor (Homo sapiens) (UniProt Q9UM73); assay: Inhibition of recombinant human ALK (1058 to end residues) at 10 uM using KKKSPGEYVNIEF as substrate after 40 mins in presence of [gamma33P]ATP by scintillation counting method relative to control
[7] = biological target: Serine/threonine-protein kinase WNK1 (Homo sapiens) (UniProt Q9H4A3); assay: Inhibition of recombinant human WNK1 (1 to 491 residues) at 10 uM using myelin basic protein as substrate measured after 120 mins in presence of [gamm33P]ATP by scintillation counting method relative to control
[8] = biological target: Mitogen-activated protein kinase 14 (Homo sapiens) (UniProt Q16539); assay: Inhibition of recombinant full-length human SAPK2a at 10 uM using myelin basic protein as substrate measured after 40 mins in presence of [gamma33P]ATP by scintillation counting method relative to control
[9] = biological target: Eukaryotic translation initiation factor 2-alpha kinase 3 (Homo sapiens) (UniProt Q9NZJ5); assay: Inhibition of recombinant human PEK (536 to end residues) at 10 uM using RSRSRSRSRSRSRSR as substrate measured after 40 mins in presence of [gamma33P]ATP by scintillation counting method relative to control
[10] = biological target: Cyclin-dependent kinase 13/Cyclin-K (Homo sapiens) (UniProt Q14004+O75909); assay: Inhibition of full-length recombinant human CDK13/cyclinK at 10 uM using RSRSRSRSRSRSRSR as substrate after 120 mins by in presence of [gamma33P]ATP by scintillation counting method relative to control; format: protein-complex assay
[11] = biological target: Death-associated protein kinase 1 (Homo sapiens) (UniProt P53355); assay: Inhibition of recombinant human DAPK1 (1 to 296 residues) at 10 uM using KKLNRTLSFAEPG as substrate after 40 mins by in presence of [gamma33P]ATP by scintillation counting method relative to control
[12] = biological target: Death-associated protein kinase 2 (Homo sapiens) (UniProt Q9UIK4); assay: Inhibition of full-length recombinant human DAPK2 at 10 uM using calmodulin as substrate after 40 mins by in presence of [gamma33P]ATP by scintillation counting method relative to control
[13] = test system: Transcriptional enhancer factor TEF-3 (Homo sapiens), Q15561 [C330A]; assay: Binding affinity to TEAD4-YBD C330A mutant (unknown origin) assessed as change in melting temperature by SYPRO-dye based thermal shift assay
[14] = biological target: Serine/threonine-protein kinase 4 (Homo sapiens) (UniProt Q13043); assay: Inhibition of recombinant full-length human MST1 at 10 uM using KKSRGDYMTMQIG as substrate measured after 40 mins in presence of [gamma33P]ATP by scintillation counting method relative to control
[15] = test system: Transcriptional enhancer factor TEF-3 (Homo sapiens), Q15561 [C335A]; assay: Binding affinity to TEAD4-YBD C335A mutant (unknown origin) assessed as change in melting temperature by SYPRO-dye based thermal shift assay
[16] = biological target: Mitogen-activated protein kinase kinase kinase 5 (Homo sapiens) (UniProt Q99683); assay: Inhibition of recombinant human ASK1 (649 to 946 residues) at 10 uM using myelin basic protein as substrate measured after 40 mins in presence of [gamma33P]ATP by scintillation counting method relative to control
[17] = test system: Serine/threonine-protein kinase N1 (Homo sapiens), Q16512 [V901I]; assay: Inhibition of human PRK1 V901I mutant (498 to end residues) at 10 uM using KKLNRTLSFAEPG as substrate measured after 40 mins in presence of [gamma33P]ATP by scintillation counting method relative to control
[18] = biological target: Mitogen-activated protein kinase kinase kinase kinase 4 (Homo sapiens) (UniProt O95819); assay: Inhibition of recombinant human MAP4K4 (1 to 328 residues) at 10 uM using RLGRDKYKTLRQIRQ as substrate measured after 40 mins in presence of [gamma33P]ATP by scintillation counting method relative to control
[19] = biological target: Ribosomal protein S6 kinase alpha-1 (Homo sapiens) (UniProt Q15418); assay: Inhibition of full length recombinant human Rsk1 at 10 uM using KKKNRTLSVA as substrate after 40 mins in presence of [gamma33P]ATP by scintillation counting method relative to control
[20] = biological target: Tyrosine-protein kinase JAK3 (Homo sapiens) (UniProt P52333); assay: Inhibition of recombinant human JAK3 (781 to end residues) at 10 uM using GGEEEEYFELVKKKK as substrate measured after 40 mins in presence of [gamm33P]ATP by scintillation counting method relative to control
[21] = biological target: Serine/threonine-protein kinase ULK2 (Homo sapiens) (UniProt Q8IYT8); assay: Inhibition of recombinant human ULK2 (1 to 306 residues) at 10 uM using casein as substrate measured after 40 mins in presence of [gamm33P]ATP by scintillation counting method relative to control
[22] = test system: CDK18/Cyclin Y (Homo sapiens), Q07002+Q8ND76 [T166M]; assay: Inhibition of recombinant full length human cyclinY/CDK18 T166M mutant at 10 uM using YRRAAVPPSPSLS as substrate measured after 40 mins in presence of [gamma33P]ATP by scintillation counting method relative to control; format: protein-complex assay
[23] = biological target: Wee1-like protein kinase (Homo sapiens) (UniProt P30291); assay: Inhibition of recombinant human Wee1 (214 to end residues) at 10 uM using LSNLYHQGKFLQTFCGSPLYRRR as substrate measured after 40 mins in presence of [gamm33P]ATP by scintillation counting method relative to control
Sequence of Wee1-like protein kinase (Homo sapiens) (P30291 whole entry, looked up): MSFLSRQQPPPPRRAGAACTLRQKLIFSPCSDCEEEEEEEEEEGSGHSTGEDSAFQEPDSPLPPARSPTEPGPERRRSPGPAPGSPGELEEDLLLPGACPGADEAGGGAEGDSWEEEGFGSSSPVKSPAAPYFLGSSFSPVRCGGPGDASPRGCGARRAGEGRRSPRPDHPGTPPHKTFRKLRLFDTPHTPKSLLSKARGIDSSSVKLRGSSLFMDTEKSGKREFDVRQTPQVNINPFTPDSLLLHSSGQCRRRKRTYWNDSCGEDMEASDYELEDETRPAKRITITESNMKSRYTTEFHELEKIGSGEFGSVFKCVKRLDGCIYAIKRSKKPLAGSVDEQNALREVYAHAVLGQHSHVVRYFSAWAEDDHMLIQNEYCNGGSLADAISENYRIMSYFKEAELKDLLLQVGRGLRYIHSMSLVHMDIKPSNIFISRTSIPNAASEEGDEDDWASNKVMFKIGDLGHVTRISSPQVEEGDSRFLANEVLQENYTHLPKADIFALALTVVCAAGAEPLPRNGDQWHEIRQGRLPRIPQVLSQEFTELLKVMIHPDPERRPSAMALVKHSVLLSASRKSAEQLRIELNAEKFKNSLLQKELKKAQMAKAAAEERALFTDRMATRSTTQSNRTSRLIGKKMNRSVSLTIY

Sequence of Death-associated protein kinase 2 (Homo sapiens) (Q9UIK4 whole entry, looked up): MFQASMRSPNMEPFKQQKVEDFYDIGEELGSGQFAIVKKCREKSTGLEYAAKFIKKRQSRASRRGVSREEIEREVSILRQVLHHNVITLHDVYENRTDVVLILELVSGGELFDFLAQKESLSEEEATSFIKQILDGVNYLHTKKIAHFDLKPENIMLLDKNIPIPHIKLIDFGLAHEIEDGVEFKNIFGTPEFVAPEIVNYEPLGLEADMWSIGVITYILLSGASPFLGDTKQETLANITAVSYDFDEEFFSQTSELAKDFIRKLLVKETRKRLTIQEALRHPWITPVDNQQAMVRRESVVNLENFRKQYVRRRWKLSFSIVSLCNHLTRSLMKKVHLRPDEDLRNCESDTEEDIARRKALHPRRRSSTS
Sequence of Death-associated protein kinase 1 (Homo sapiens) (P53355 whole entry, looked up, the tested form may be a part): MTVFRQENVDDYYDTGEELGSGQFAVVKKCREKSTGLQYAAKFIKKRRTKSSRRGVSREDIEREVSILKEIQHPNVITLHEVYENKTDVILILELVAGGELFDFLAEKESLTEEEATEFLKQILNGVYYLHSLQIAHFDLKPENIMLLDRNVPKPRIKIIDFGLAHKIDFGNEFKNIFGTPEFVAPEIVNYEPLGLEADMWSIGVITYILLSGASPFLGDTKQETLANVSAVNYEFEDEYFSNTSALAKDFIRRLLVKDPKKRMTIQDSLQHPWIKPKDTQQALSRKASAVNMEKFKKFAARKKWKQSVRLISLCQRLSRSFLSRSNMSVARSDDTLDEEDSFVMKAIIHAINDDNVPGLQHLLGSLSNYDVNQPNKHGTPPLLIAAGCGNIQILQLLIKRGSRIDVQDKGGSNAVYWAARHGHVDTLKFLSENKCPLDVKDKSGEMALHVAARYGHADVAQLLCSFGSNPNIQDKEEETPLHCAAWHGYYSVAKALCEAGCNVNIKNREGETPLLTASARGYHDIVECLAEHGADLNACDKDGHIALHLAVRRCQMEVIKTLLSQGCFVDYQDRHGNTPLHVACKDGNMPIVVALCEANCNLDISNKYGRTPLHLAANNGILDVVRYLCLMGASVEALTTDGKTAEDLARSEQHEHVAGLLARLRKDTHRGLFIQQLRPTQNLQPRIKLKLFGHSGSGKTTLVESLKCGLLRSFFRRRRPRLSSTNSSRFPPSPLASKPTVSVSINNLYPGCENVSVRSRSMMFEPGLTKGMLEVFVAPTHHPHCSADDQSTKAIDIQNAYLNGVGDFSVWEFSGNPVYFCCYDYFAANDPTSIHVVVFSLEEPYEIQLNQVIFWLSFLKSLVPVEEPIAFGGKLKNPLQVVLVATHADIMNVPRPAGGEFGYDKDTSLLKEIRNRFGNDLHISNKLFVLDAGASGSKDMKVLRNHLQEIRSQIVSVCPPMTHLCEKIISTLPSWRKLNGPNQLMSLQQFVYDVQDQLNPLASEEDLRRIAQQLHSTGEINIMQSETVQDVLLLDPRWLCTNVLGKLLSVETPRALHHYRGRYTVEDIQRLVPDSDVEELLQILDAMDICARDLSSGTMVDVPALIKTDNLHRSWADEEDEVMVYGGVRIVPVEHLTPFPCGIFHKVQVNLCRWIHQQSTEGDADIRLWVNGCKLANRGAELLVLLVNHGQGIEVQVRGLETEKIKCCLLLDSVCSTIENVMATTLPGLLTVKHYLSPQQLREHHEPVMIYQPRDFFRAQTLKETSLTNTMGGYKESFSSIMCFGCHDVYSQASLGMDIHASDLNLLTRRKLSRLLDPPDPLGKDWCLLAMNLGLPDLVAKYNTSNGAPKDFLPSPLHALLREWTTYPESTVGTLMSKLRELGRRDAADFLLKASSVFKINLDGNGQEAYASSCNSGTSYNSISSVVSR
Sequence of Tyrosine-protein kinase ITK/TSK (Homo sapiens) (Q08881 whole entry, the tested form may be a part): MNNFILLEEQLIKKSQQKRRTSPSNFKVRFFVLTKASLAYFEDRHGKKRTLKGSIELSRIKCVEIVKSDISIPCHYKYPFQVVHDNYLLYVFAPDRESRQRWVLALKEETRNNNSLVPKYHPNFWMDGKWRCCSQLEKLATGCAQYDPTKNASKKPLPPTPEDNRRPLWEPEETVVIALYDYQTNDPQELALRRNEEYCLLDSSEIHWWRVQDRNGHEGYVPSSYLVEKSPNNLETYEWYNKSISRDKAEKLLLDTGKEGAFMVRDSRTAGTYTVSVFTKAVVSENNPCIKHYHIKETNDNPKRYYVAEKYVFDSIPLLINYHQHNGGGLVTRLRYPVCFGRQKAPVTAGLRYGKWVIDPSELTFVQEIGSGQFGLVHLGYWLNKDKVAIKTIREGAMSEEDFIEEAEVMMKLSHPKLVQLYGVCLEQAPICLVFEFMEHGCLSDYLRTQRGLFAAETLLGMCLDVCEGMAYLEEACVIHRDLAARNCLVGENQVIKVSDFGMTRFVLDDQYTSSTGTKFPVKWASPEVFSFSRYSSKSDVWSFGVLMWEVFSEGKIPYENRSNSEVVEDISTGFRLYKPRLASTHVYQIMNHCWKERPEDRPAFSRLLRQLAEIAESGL
Sequence of Tyrosine-protein kinase JAK3 (Homo sapiens) (P52333 whole entry, the tested form may be a part): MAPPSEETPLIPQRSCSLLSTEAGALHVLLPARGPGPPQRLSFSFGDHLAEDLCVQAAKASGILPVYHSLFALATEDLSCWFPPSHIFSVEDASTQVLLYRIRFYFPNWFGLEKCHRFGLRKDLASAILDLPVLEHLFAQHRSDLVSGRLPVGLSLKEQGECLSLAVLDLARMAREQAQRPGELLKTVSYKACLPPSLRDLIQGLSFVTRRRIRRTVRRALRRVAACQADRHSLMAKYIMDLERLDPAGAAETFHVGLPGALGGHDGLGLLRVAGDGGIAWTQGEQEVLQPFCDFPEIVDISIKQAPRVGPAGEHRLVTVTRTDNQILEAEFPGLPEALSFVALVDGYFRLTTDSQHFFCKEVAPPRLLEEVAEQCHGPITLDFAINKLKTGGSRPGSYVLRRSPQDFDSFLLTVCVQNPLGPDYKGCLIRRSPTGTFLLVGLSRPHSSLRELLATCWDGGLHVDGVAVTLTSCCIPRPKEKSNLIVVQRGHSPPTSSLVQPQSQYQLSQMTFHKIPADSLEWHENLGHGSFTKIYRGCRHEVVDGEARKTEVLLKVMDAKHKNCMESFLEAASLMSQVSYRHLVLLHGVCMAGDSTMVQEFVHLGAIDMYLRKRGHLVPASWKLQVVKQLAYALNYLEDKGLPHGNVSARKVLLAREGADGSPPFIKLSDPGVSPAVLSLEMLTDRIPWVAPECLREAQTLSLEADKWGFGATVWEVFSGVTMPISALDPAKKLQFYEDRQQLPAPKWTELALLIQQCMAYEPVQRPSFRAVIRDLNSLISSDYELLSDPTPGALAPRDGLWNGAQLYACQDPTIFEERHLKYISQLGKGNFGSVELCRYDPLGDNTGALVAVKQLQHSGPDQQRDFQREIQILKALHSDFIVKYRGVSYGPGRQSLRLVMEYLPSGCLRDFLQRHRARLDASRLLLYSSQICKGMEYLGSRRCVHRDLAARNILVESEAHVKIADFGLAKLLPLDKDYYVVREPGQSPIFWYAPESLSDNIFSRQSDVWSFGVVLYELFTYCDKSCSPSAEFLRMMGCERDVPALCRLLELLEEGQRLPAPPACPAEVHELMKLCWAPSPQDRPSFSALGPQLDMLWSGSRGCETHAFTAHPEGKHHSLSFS
Sequence of Serine/threonine-protein kinase 4 (Homo sapiens) (Q13043 whole entry): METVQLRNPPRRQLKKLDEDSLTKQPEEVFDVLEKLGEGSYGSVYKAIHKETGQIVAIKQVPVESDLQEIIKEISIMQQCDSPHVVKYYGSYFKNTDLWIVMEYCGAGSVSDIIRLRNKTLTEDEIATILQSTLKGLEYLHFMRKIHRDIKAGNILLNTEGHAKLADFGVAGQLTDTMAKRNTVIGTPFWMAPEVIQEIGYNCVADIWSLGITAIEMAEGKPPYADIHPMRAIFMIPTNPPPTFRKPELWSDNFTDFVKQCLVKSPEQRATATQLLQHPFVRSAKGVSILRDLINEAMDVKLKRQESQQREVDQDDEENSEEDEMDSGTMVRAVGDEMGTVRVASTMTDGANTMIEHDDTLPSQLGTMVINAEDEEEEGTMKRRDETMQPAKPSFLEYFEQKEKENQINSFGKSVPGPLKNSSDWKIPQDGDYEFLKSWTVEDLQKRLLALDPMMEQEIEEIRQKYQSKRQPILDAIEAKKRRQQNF
Sequence of Mitogen-activated protein kinase 14 (Homo sapiens) (Q16539 whole entry): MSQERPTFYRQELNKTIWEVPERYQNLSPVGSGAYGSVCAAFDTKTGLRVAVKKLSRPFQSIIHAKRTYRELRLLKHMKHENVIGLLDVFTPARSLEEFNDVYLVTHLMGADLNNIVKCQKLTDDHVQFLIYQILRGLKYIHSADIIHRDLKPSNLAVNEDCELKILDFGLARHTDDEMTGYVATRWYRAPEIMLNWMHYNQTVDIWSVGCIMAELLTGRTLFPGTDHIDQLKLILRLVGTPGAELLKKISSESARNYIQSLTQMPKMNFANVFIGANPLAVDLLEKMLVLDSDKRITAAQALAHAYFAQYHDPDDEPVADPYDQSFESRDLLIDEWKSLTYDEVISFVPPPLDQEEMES

Work on `C=CS(=O)(=O)Nc1ccc(Cc2ccc3ccccc3c2)cc1` yielded an inhibition [1] of 3%, an inhibition [2] of 5% and an inhibition [3] of 6%. The inhibition [4] was -4%, the ΔTm [5] was 7.5 °C and the inhibition [6] was 0%. It also gave an inhibition [7] of -10%, an inhibition [8] of 10% and an inhibition [9] of -1%. The inhibition [10] was 17%, the inhibition [11] was 8% and the inhibition [12] was -7%. The ΔTm [13] was 6.4 °C, the inhibition [14] was 0% and the ΔTm [15] was 5.2 °C. For the same molecule, the inhibition [16] was 13%, the inhibition [17] was 2% and the inhibition [18] was 7%. For the same molecule, the inhibition [19] was 22%, the inhibition [20] was 5% and the inhibition [21] was 2%. It also gave an inhibition [22] of -5% and an inhibition [23] of -4%.

— ChEMBL document CHEMBL4376829, “Discovery and biological evaluation of vinylsulfonamide derivatives as highly potent, covalent TEAD autopalmitoylation inhibitors” (Eur J Med Chem, 2019)
